As usually defined, the IC50 is the midpoint of a concentration-inhibition curve. High values mean a need for much substance, low ones inhibition by little substance.

Experimental findings from article PMC7523975, “Alkaloids of Abuta panurensis Eichler: In silico and in vitro study of acetylcholinesterase inhibition, cytotoxic and immunomodulatory activities” (PLoS ONE, 2020) are described below.

Test [1] has as its target T1, acetylcholinesterase (AChE, TcAChE) (Tetronarce californica, UniProt P04058). Description: Ellman colorimetric assay with commercial enzyme, […] nm. It counts as biochemical. On the technique in general: In Ellman's method for cholinesterases, released thiocholine reacts with DTNB.
The target in test [2] is T1, acetylcholinesterase (AChE, TcAChE). Description: Ellman colorimetric assay with commercial enzyme, […] nm (positive control). It counts as biochemical.

T1 sequence (P04058 22-564): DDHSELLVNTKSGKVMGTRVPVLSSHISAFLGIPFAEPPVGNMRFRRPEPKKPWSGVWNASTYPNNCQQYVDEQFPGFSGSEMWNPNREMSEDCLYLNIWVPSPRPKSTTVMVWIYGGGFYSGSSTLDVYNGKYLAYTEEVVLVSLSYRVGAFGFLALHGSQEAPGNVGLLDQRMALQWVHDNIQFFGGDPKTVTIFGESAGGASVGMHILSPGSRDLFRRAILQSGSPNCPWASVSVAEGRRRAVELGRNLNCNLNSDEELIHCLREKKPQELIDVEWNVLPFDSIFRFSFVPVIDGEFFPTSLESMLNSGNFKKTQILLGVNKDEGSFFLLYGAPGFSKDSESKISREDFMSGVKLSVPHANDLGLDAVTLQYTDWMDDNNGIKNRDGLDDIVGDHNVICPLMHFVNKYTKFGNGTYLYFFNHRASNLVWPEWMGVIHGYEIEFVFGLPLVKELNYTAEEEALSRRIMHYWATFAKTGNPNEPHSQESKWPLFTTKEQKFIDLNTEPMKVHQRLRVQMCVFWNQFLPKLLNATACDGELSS

`CN(CCCCNC(=O)/C=C/c1ccccc1)CCCNC(=O)/C=C/c1ccccc1` [compound 1, 5-N-methylmaytenine] yielded an IC50 in test [1] of 19.6 µM.

Take `COC1=CC2CCNC3CC4(C=CC(=O)C=C4)C(=C1OC)C23` (stereo not drawn) [compound 2, stepharine]: in test [1], it took 61.2 µM to reach half-maximal inhibition (IC50).

As for `CN(C)C(=O)Oc1cccc([N+](C)(C)C)c1` [neostigmine], it took 3.72 µM to reach half-maximal inhibition in test [2] (IC50).
